Data reported in paper PMC4201456, “Cytoxicity and Apoptotic Mechanism of Ruthenium(II) Amino Acid Complexes in Sarcoma-180 Tumor Cells” (PLoS ONE, 2014).

Tests used:
S180 tumor cells = assay: MTT cell viability assay, S180 tumor cells; type: cell-based, murine; settings: S180 tumor cell line, 48 h
Method: (§1) The murine sarcoma-180 tumor cells (S180) (ATCC# TIB-66) and normal murine fibroblast cells (L-929) (ATCC# CCL-1) were cultured in suspension in RPMI 1640 and DMEM media (Sigma Chemical Co., MO), respectively, supplemented with 10% fetal calf serum, 100 µg/mL penicillin, and 100 µg/mL streptomycin. The cultures were incubated in a humidified incubator (Thermo Scientific) at 37°C with 5% CO2.
(§2) The cytotoxic effects of the amino acid ruthenium complexes were evaluated using an MTT assay with S180 tumor cells and L929 normal cells as described previously. Briefly, 1.0×10^5 S180 cells and 2.0×10^4 L929 cells were plated in 96-well tissue culture plates and treated with different concentrations of amino acid ruthenium complexes (0.2–200 µM) for 48 h. After treatment, 10 µL of MTT (5 mg mL^−1) was added to each well, and the plates were incubated at 37°C for an additional 3 h. The purple formazan crystals were dissolved in 50 µL of SDS, and the absorbance was determined at 545 nm using a Stat Fax 2100 microplate reader (Awareness Technology, Palm City, FL, USA). The cell viability was calculated as follows: viability (%) = (absorbance of the treated wells)/(absorbance of the control wells) ×100. The IC50 (complex concentration (µM) that results in a 50% reduction in cellular viability) was obtained from dose-response curves using GraphPad Prism 4.02 for Windows (GraphPad Software, San Diego, CA, USA).

L929 normal cells = assay: MTT cell viability assay, L929 normal cells; type: cell-based, murine; settings: L929 normal cell line, 48 h
Method: as §1, §2

S180 cells = assay: Mitochondrial membrane potential, JC-1 flow cytometry; type: cell-based, murine; settings: 24 h; for percentage of cells with depolarized mitochondria: control 11.5%; for percentage of cells showing red fluorescence (upper-right quadrant): control 88.5%
Method: The effect of complex 2 on the mitochondrial membrane potential (ΔΨm) was measured using JC-1 dye (BD Biosciences) by flow cytometry according to the manufacturer's instructions. Briefly, 3.0×10^5 S180 cells were treated with complex 2 (40 µM and 60 µM) for 24 h. After incubation, the cells were harvested and washed with PBS. The cells were then incubated with JC-1 dye (BD Biosciences) for 15 min at 37°C in the dark. The stained cells were washed, resuspended in assay buffer, and immediately analyzed by flow cytometry. The data were analyzed using the Cell Quest software.

caspase-3 = assay: Caspase activity colorimetric assay (DEVD-pNA); type: cell-based, murine; settings: S180 cells, 24 h, control 100%
Method: (§3) Direct measurement of the activity of caspases 3, 8, and 9 were performed using the ApoTarget Caspase 3, 8, and 9 Protease Assay (Invitrogen) according to the manufacturer's recommendations. After treatment with complex 2 (40 µM and 60 µM) for 24 h, the cells were lysed with chilled cell lysis buffer. The protein concentration was then measured using the BSA Protein Assay Kit (BioRad). An aliquot of the protein extract (75 µg) was mixed with 50 µL of 2X reaction buffer supplemented with 10 mM DTT and the substrates of DEVD-pNA (caspase-3), IETD-pNA (caspase-8), or LEHD-pNA (caspase-9). The mixtures were then incubated for 2 h at 37°C. Subsequently, the formation of p-nitroanilide in the samples was measured using an ELISA microplate reader at 405 nm. The increases in the activities of caspase-3, caspase-8, and caspase-9 were determined by comparing the results with the control.

caspase-8 = assay: Caspase activity colorimetric assay (IETD-pNA); type: cell-based, murine; settings: S180 cells, 40 µM, 24 h; control 100%
Method: as §3

bax = assay: Real-time RT-PCR gene expression, bax; type: cell-based, murine; settings: S180 cells, 40 µM, 6 h; normalized to β-actin
Method: (§4) The S180 cells were treated with 40 µM complex 2 for 6 h. Total RNA was extracted with Trizol reagent (Sigma-Aldrich, USA) following the manufacturer's protocol. Total RNA (2.0 µg) was used to produce complementary DNA (cDNA) with random primers (Applied Biosystems, USA) in a 20 µL reaction mixture according to the manufacturer's protocol.
(§5) Real-time PCR was carried out using a Line Gene K (Bioer Technology) instrument. Real-time PCR reactions were carried out in a 20 µL reaction mixture, including 2 µL of cDNA, 10 µL of SYBR Green PCR Master Mix (LGC Biotechnology, UK), and 2.0 µL of 400 nM forward and reverse primers. The PCR program was initiated at 95°C for 15 min followed by 40 cycles of 95°C for 15 s, 55°C for 15 s, and 72°C for 30 s. The data were analyzed according to the comparative Ct method and were normalized to the β-actin reference gene expression in each sample.

caspase 3 = assay: Real-time RT-PCR gene expression, caspase 3; type: cell-based, murine; settings: S180 cells, 40 µM, 6 h; normalized to β-actin
Method: as §4, §5

caspase 9 = assay: Real-time RT-PCR gene expression, caspase 9; type: cell-based, murine; settings: S180 cells, 40 µM, 6 h; normalized to β-actin
Method: as §4, §5

caspase 8 = assay: Real-time RT-PCR gene expression, caspase 8; type: cell-based, murine; settings: S180 cells, 40 µM, 6 h; p>0.05
Method: as §4, §5

p53 = assay: Real-time RT-PCR gene expression, p53; type: cell-based, murine; settings: S180 cells, 40 µM, 6 h; p>0.05
Method: as §4, §5

pBR322 plasmid DNA = assay: Atomic force microscopy of plasmid DNA; type: binding; settings: incubated 24 h at 37°C
Method: For the atomic force microscopy (TMAFM) experiment, the pBR322 plasmid was heated at 60°C for 10 minutes to obtain the OC form. The concentration of the stock solution was 1 mg/mL in HEPES buffer (4 mM HEPES (pH 7.4) and 2 mM MgCl2. Each sample contained 1 µL of pBR322 plasmid at a concentration of 0.25 µg/µL in a final volume of 40 µL. The amount of complex 2 added is expressed as ri. AFM samples were prepared by casting a 3 µL drop of test solution onto freshly cleaved muscovite green mica disks as the support. The drop was allowed to stand undisturbed for 3 minutes to favor the adsorbate-substrate interaction. Each DNA-laden disk was rinsed with Milli-Q water and was blown dry with clean compressed argon gas directed normal to the disk surface. The samples were stored over silica prior to AFM imaging. All AFM observations were made with a Nanoscope III Multimode AFM (Digital Instruments, Santa Barbara, CA). Nanocrystalline Si cantilevers ([…] in length) with an average spring constant of 50 N/m terminating in conical-shaped Si probe tips (10 nm apical radius and cone angle of 35°) were utilized. High-resolution topographic AFM images of 2×2 µm areas of different specimens were obtained in air at room temperature (relative humidity <40%). The AFM was operated in intermittent contact mode at a rate of 1–3 Hz.

- IC50 (S180 tumor cells): 31.2 ± 4.19 µM
- activity of caspase-3 (caspase-3; 40 µM): 136.05%
- activity of caspase-3 (caspase-3; 60 µM): 170.24%
- activity of caspase-8 (caspase-8): 127.22%
- expression level of caspase 3 compared to control (caspase 3): 2.55 fold
- expression level of caspase 9 compared to control (caspase 9): 1.83 fold
- expression level of caspase 8 compared with control (caspase 8): remained unchanged
SMILES: F[P-](F)(F)(F)(F)F.NCC(=O)[O-].[Ru+2].c1ccc(-c2ccccn2)nc1.c1ccc(P(CCCCP(c2ccccc2)c2ccccc2)c2ccccc2)cc1 [Complex 2, [Ru(gly)(bipy)(dppb)]PF6]
- IC50 (L929 normal cells): 51.6 ± 1.22 µM
- percentage of cells with depolarized mitochondria (S180 cells; 40 µM): 45.2%
- percentage of cells showing red fluorescence (upper-right quadrant) (S180 cells; 40 µM): 54.3%
- percentage of cells with depolarized mitochondria (S180 cells; 60 µM): 52.6%
- percentage of cells showing red fluorescence (upper-right quadrant) (S180 cells; 60 µM): 47.1%
- expression level of the bax gene compared to untreated control (bax): 2.75 fold
- expression level of p53 compared with control (p53): remained unchanged
- interaction with pBR322 plasmid DNA (AFM images) (pBR322 plasmid DNA): did not covalently bind to DNA bases or intercalate between bases
